No end group written: not given here.
Biological target: T1, VPAC1R (Homo sapiens, UniProt P32241)
T1 construct: An HA signal peptide was inserted in place of the native signal peptide of the receptors; HA signal peptide (replaces the native signal peptide) (N); 3C protease cleavage sites (between FLAG and receptor, and between receptor and His) (internal); expressed in transfected cells; host or cells: COS-7 (transient, PEI)
T1 sequence (P32241 31-457): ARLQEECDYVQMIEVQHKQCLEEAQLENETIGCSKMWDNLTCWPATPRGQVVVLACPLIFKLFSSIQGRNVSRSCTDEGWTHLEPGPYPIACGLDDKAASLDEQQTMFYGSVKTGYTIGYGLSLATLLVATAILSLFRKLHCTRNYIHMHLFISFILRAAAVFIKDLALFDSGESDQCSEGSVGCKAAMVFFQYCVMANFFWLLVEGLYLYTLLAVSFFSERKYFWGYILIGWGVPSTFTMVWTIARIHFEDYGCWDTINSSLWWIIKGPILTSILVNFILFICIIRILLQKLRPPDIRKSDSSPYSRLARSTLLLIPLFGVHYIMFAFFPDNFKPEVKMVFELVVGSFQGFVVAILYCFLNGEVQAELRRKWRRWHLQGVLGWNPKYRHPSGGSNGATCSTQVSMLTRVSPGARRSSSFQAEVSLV
Test: cAMP accumulation, chimeric peptides (Fig. 5a)
Assay type: cell-based
Conditions: pEC50, VPAC1R cAMP, COS-7, three-parameter logistic
Description: COS-7 cells were used for the chimeric peptide and cysteine mutagenesis pharmacological assays due to their lack of endogenous expression of PAC1R and receptor activity-modifying proteins, reported to potentially heterodimerize with PAC1R and VPAC1R[42]. […] COS-7 cells were plated in 10 cm dishes at approximately 1 million cells/dish. Cells were transfected 24 h later, with 5 µg of either WT or mutant PAC1R or VPAC1R receptor DNA. DNA and PEI (in a 1:6 ratio) were each diluted in 150 mM NaCl, and then combined and incubated for 10 min, before the mixture was added to the 10 cm dish. The next day, cells were harvested from the 10 cm dishes using Trypsin-Versene (PBS + 0.5 mM EDTA, pH 7.4), and were seeded at a density of 15,000 cells/well into clear 96-well culture plates and incubated overnight at 37 °C in 5% CO2 for cAMP accumulation assay the next day.
The reaction was terminated after 30 min by aspiration of the buffer and addition of 50 μl of ice-cold ethanol. Upon evaporation of ethanol, 75 μl of lysis buffer (5 mM HEPES, 0.1% (w/v) OVA, 0.3% (w/v) Tween20, pH 7.4) was added to the cells. cAMP detection was performed using a LANCE cAMP Detection Kit (PerkinElmer) for the construct validation and cysteine mutagenesis pharmacological assays and cAMP Gs HiRange kit (Cisbio) for the chimeric peptide pharmacological assays. The plates were read using an EnVision plate reader with excitation at 320 nm and emission at 615 nm[45].
The pharmacological data in figures and tables are reported as mean + standard error of the mean (SEM) with the number of biological replicates indicated in the figure and table legends where “n” represents the number of biological replicates performed. Concentration-response data were analyzed in GraphPad Prism version 9.4.0 using a three-parameter logistic curve to derive pEC50 values for the cyclic AMP accumulation. Competition binding data were analyzed in GraphPad Prism using the one site—Fit log IC50 model to derive pIC50 values. For the cysteine mutagenesis data, comparisons of multiple different groups were performed using one-way analysis of variance (ANOVA), followed by Dunnett’s post-hoc test with the control group being the WT receptor, with significance accepted at p < 0.05. For the chimeric peptide data, comparisons of multiple different groups were performed using one-way ANOVA, followed by Tukey’s post-hoc test, with significance accepted at p < 0.05.

CC[C@H](C)[C@H](NC(=O)[C@H](C)NC(=O)[C@H](CC(=O)O)NC(=O)[C@H](CO)NC(=O)[C@@H](N)Cc1cnc[nH]1)C(=O)N[C@@H](Cc1ccccc1)C(=O)N[C@H](C(=O)N[C@@H](CC(=O)O)C(=O)N[C@@H](CO)C(=O)N[C@@H](Cc1ccc(O)cc1)C(=O)N[C@@H](CO)C(=O)N[C@@H](CCCNC(=N)N)C(=O)N[C@@H](Cc1ccc(O)cc1)C(=O)N[C@@H](CCCNC(=N)N)C(=O)N[C@@H](CCCCN)C(=O)N[C@@H](CCC(N)=O)C(=O)N[C@@H](CCSC)C(=O)N[C@@H](C)C(=O)N[C@H](C(=O)N[C@@H](CCCCN)C(=O)N[C@@H](CCCCN)C(=O)N[C@@H](Cc1ccc(O)cc1)C(=O)N[C@@H](CC(C)C)C(=O)N[C@@H](C)C(=O)N[C@@H](C)C(=O)N[C@H](C(=O)N[C@@H](CC(C)C)C(N)=O)C(C)C)C(C)C)[C@@H](C)O [Ala4 PACAP27]
EC50 (replicate n=1): 2.25 nM | EC50 (replicate n=2): 2.52 nM | EC50 (replicate n=3): 9.38 nM | EC50 (replicate n=4): 1.73 nM | EC50 (replicate n=5): 12.4 nM

HSDGVFTDNYTRLRKQMAVKKYLNSILN-NH2 [Gly4 VIP]
EC50 (replicate n=1): 1.26 nM | EC50 (replicate n=2): 0.995 nM | EC50 (replicate n=3): 1.64 nM | EC50 (replicate n=4): 1.7 nM | EC50 (replicate n=5): 1.39 nM

Reference: publication PMC9668914, “Understanding VPAC receptor family peptide binding and selectivity” (Nature Communications, 2022)
